Results published in patent US20230066946A1, “1,5-DIPHENYLPYRAZOLYL-3-OXYALKYL ACIDS AND 1-PHENYL-5-THIENYLPYRAZOLYL-3-OXYALKYL ACIDS AND THE USE THEREOF FOR CONTROL OF UNWANTED PLANT GROWTH” (Bayer Aktiengesellschaft, priority 2019, published 2023).

Experiments:
[1] = system: AMARE; test: Pre-emergence herbicidal action against AMARE; format: in vivo, Amaranthus retroflexus; details: scored visually after about 3 weeks vs untreated controls; for Pre-emergence action against AMARE in %: 1280 g/ha; for Pre-emergence action at 320 g/ha against AMARE in %: 100% = plants have died, 0% = like control plants
Text: (§1) Seeds of mono- and dicotyledonous weed plants are placed in plastic pots in sandy loam soil (doubly sown with one species each of mono- or dicotyledonous weed plants per pot) and covered with soil. The compounds of the invention, formulated in the form of wettable powders (WP) or as emulsion concentrates (EC), are then applied onto the surface of the covering soil as aqueous suspension or emulsion with addition of 0.5% additive at a water application rate equivalent to 600 litres per hectare. After the treatment, the pots are placed in a greenhouse and kept under good growth conditions for the trial plants. After about 3 weeks, the effect of the preparations is scored visually in comparison with untreated controls as percentages. For example, 100% activity=the plants have died, 0% activity=like control plants. [table] Tables 4.1-4.15 below show the effects of selected compounds of the general formula (I) according to Tables 1 to 3 on various harmful plants at an application rate corresponding to 1280 or 320 g/ha, which have been obtained by the aforementioned experimental method.

[2] = system: SETVI; test: Pre-emergence herbicidal action against SETVI; format: in vivo, Setaria viridis; details: 1280 g/ha, scored visually after about 3 weeks vs untreated controls
Text: as §1

[3] = system: ECHCG; test: Post-emergence herbicidal action against ECHCG; format: in vivo, Echinochloa crus-galli; details: 1280 g/ha, post-emergence at one-leaf stage, rated visually after about 3 weeks vs untreated controls
Method: (§2) [table] Seeds of mono- and dicotyledonous weed plants are placed in plastic pots in sandy loam soil (twin sowing with one species each of mono- or dicotyledonous weed plants per pot), covered with soil and cultivated in a greenhouse under controlled growth conditions. 2 to 3 weeks after sowing, the test plants are treated at the one-leaf stage. The compounds of the invention, formulated in the form of wettable powders (WP) or as emulsion concentrates (EC), are applied to the green parts of the plants as aqueous suspension or emulsion with addition of 0.5% additive at a water application rate equivalent to 600 litres per hectare. After the test plants have been kept in the greenhouse under optimum growth conditions for about 3 weeks, the activity of the preparations is rated visually in comparison to untreated controls. For example, 100% activity=the plants have died, 0% activity=like control plants. Tables 5.1-5.16 below show the effects of selected compounds of the general formula (I) according to Tables 1 to 3 on various harmful plants at an application rate corresponding to 1280 or 320 g/ha, which have been obtained by the aforementioned experimental method.

[4] = system: STEME; test: Pre-emergence herbicidal action against STEME; format: in vivo, Stellaria media; details: 1280 g/ha, scored visually after about 3 weeks vs untreated controls
Text: as §1

[5] = system: STEME; test: Post-emergence herbicidal action against STEME; format: in vivo, Stellaria media; details: visual rating about 3 weeks after treatment
Method: as §2

[6] = system: ECHCG; test: Pre-emergence herbicidal action against ECHCG; format: in vivo, Echinochloa crus-galli; details: scored visually after about 3 weeks vs untreated controls, 100% = plants have died, 0% = like control plants
Text: as §1

[7] = system: SETVI; test: Post-emergence herbicidal action against SETVI; format: in vivo, Setaria viridis; details: 1280 g/ha, post-emergence at one-leaf stage, rated visually after about 3 weeks vs untreated controls
Method: as §2

[8] = system: MATIN; test: Post-emergence herbicidal action against MATIN; format: in vivo, Matricaria inodora; details: visual rating about 3 weeks after treatment
Method: as §2

[9] = system: AMARE; test: Post-emergence herbicidal action against AMARE; format: in vivo, Amaranthus retroflexus; details: visual rating about 3 weeks after treatment
Method: as §2

[10] = system: POLCO; test: Post-emergence herbicidal action against POLCO; format: in vivo, Polygonum convolvulus; details: 320 g/ha, visual rating about 3 weeks after treatment
Method: as §2

[11] = system: PHBPU; test: Post-emergence herbicidal action against PHBPU; format: in vivo, Pharbitis purpurea; details: 320 g/ha, visual rating about 3 weeks after treatment
Method: as §2

[12] = system: VERPE; test: Post-emergence herbicidal action against VERPE; format: in vivo, Veronica persica; details: 320 g/ha, visual rating about 3 weeks after treatment
Method: as §2

[13] = system: VERPE; test: Pre-emergence herbicidal action against VERPE; format: in vivo, Veronica persica; details: 320 g/ha, scored visually after about 3 weeks vs untreated controls
Text: as §1

[14] = system: VIOTR; test: Post-emergence herbicidal action against VIOTR; format: in vivo, Viola tricolor; details: 320 g/ha, visual rating about 3 weeks after treatment
Method: as §2

Row | Structure (SMILES) | Pre-emergence action against AMARE in % [1] [%] | Pre-emergence action against SETVI in % [2] [%] | Post-emergence action against ECHCG in % [3] [%] | Pre-emergence action against STEME in % [4] [%] | Post-emergence action against STEME in % ([5]; 1280 g/ha) [%] | Pre-emergence action at 1280 g/ha against ECHCG in % [6] [%] | Post-emergence action against SETVI in % [7] [%] | Post-emergence action against MATIN in % ([8]; 1280 g/ha) [%] | Post-emergence action against AMARE in % ([9]; 1280 g/ha) [%] | Post-emergence action against POLCO in % [10] [%] | Post-emergence action against PHBPU in % [11] [%] | Post-emergence action against VERPE in % [12] [%] | Pre-emergence action at 320 g/ha against AMARE in % [1] [%] | Post-emergence action against AMARE in % ([9]; 320 g/ha) [%] | Pre-emergence action against VERPE in % [13] [%] | Post-emergence action against VIOTR in % [14] [%] | Post-emergence action against MATIN in % ([8]; 320 g/ha) [%] | Post-emergence action against STEME in % ([5]; 320 g/ha) [%]
1 | CC(Oc1nn(-c2c(F)cccc2F)c(-c2ccc(F)c(F)c2)c1Br)C(=O)O (centres unmarked) [I-167] | 100 | 100 | 90 | 100 | 100 | 100 | – | – | – | – | – | – | – | – | – | – | – | –
2 | CCOC(=O)COc1nn(-c2cc(F)c(F)cc2F)c(-c2cccc(F)c2)c1Cl [I-097] | 100 | 100 | 100 | 100 | 100 | 100 | 90 | 100 | – | – | – | – | – | – | – | – | – | –
3 | COC(=O)COc1nn(-c2ccccc2)c(-c2ccc(Cl)cc2)c1Cl [I-004] | 90 | – | – | – | – | – | – | – | 80 | 80 | 80 | – | – | – | – | – | – | –
4 | CCOC(=O)COc1nn(-c2cc(F)c(F)cc2F)c(-c2ccccc2)c1Cl [I-093] | 100 | 100 | 100 | 100 | 100 | 100 | – | 100 | 100 | – | – | – | – | – | – | – | – | –
5 | CCOC(=O)CCNC(=O)COc1nn(-c2ccc(F)cc2)c(-c2cccc(F)c2)c1Br [III-019] | 90 | 100 | 90 | 100 | – | – | 90 | 90 | 100 | – | – | – | – | – | – | – | – | –
6 | COC(=O)COc1nn(-c2cccc(F)c2)c(-c2cccc(Cl)c2)c1C#N [I-038] | – | – | – | – | – | – | – | 80 | 90 | – | 80 | 80 | – | – | – | – | – | –
7 | COC(=O)C(C)Oc1nn(-c2ccccc2)c(-c2cccc(F)c2)c1Cl (centres unmarked) [I-164] | 100 | 100 | 90 | 100 | 100 | 100 | 100 | 100 | 100 | – | – | – | – | – | – | – | – | –
8 | COC(=O)COc1nn(-c2ccc(F)cc2)c(-c2cccc(F)c2)c1Br [I-107] | 90 | 90 | 90 | 100 | 90 | 100 | – | 100 | 100 | – | – | – | – | – | – | – | – | –
9 | COC(=O)C(C)Oc1nn(-c2c(F)cccc2F)c(-c2ccc(F)c(F)c2)c1Br (centres unmarked) [I-169] | 100 | 100 | 90 | 100 | 100 | 100 | 90 | 90 | 100 | – | – | – | – | – | – | – | – | –
10 | CCOC(=O)COc1nn(-c2ccc(F)cc2F)c(-c2cccc(F)c2)c1Cl [I-098] | 100 | 90 | 100 | 100 | 90 | 100 | 90 | 90 | 100 | – | – | – | – | – | – | – | – | –
11 | C=CCNC(=O)COc1nn(-c2ccccc2)c(-c2ccc(F)cc2)c1Br [III-004] | 100 | 100 | – | 100 | – | 100 | – | – | 100 | 80 | 80 | – | 80 | 80 | 100 | – | – | –
12 | CCOC(=O)COc1nn(-c2ccccc2F)c(-c2ccc(F)c(F)c2)c1[N+](=O)[O-] [I-143] | 100 | 100 | 100 | 90 | 100 | – | – | 100 | 100 | – | – | – | – | – | – | – | – | –
13 | O=C(O)COc1nn(-c2ccc(F)cc2)c(-c2cccc(F)c2)c1Cl [I-120] | 100 | 100 | 90 | 100 | – | 90 | – | 90 | – | – | – | – | – | – | – | – | – | –
14 | COC(=O)COc1nn(-c2cccc(F)c2)c(-c2ccc(Cl)cc2)c1Cl [I-005] | – | – | – | – | – | – | – | – | 80 | – | 80 | – | – | 80 | – | 80 | – | –
15 | COC(=O)COc1nn(-c2ccc(F)cc2)c(-c2ccccc2)c1C#N [I-011] | 90 | – | – | – | 80 | 80 | – | 90 | – | 80 | – | 80 | – | – | – | – | 90 | –
16 | COC(=O)COc1nn(-c2cccc(F)c2)c(-c2cccc(F)c2)c1C#N [I-047] | – | – | – | – | – | – | – | – | – | – | 80 | 80 | 90 | 80 | 90 | 90 | 80 | 80
17 | O=C(O)COc1nn(-c2ccccc2F)c(-c2ccc(F)c(F)c2)c1Br [I-136] | 100 | 100 | 100 | 100 | 100 | 100 | – | 90 | 90 | – | – | – | – | – | – | – | – | –
18 | COC(=O)[C@H](C)Oc1nn(-c2cccc(F)c2)c(-c2cccc(F)c2)c1C#N [I-126] | 100 | 100 | 90 | 100 | 100 | – | 90 | – | 100 | – | – | – | – | – | – | – | – | –
19 | COC(=O)COc1nn(-c2ccc(Cl)cc2)c(-c2cccc(F)c2)c1Cl [I-029] | – | – | – | – | – | – | – | – | – | – | 80 | 80 | – | – | – | – | – | –
